# Laboratory results as given in PMC5065787 (Bioorganic & medicinal chemistry, 2016).
# Substitutions are numbered along the chain they refer to.
# What was measured:
# h15-LOX-1 F414W = molecular target: T1, h15-LOX-1 F414W (Homo sapiens, UniProt P16050, F414W); experiment: Steady-state substrate kinetics, F414W; assay type: biochemical; conditions: error in parentheses, no unit in table (sec^−1)
# T1 sequence (P16050 1-662 F414W): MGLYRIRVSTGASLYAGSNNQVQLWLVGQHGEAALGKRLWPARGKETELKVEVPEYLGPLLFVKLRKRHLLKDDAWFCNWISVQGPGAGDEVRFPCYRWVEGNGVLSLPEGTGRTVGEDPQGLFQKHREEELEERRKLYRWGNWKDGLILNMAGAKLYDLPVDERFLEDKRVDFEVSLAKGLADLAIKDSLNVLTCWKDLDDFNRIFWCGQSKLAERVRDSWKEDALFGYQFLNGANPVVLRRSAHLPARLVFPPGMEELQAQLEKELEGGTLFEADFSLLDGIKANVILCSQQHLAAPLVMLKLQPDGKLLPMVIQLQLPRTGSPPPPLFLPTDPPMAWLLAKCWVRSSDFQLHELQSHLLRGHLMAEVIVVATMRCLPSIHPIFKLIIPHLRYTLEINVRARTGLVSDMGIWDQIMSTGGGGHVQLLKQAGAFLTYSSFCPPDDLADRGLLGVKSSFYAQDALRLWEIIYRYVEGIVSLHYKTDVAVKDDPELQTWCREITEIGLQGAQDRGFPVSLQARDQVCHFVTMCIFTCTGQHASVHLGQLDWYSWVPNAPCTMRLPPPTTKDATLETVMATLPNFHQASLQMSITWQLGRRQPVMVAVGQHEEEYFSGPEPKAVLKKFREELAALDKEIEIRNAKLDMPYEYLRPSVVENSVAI
# h15-LOX-1 E356Q = molecular target: T2, h15-LOX-1 E356Q (Homo sapiens, UniProt P16050, E356Q); experiment: Steady-state substrate kinetics, E356Q; assay type: biochemical; conditions: error in parentheses, no unit in table (sec^−1)
# T2 sequence (P16050 1-662 E356Q): T1 sequence (P16050 1-662 F414W) with E356Q, W414F
smiles,measurement,setting,value
"CCCCC/C=C\C/C=C\C/C=C\C/C=C\CCCC(=O)O [AA, arachidonic acid]",kcat,h15-LOX-1 F414W,2.8 (0.08)
same,kcat,h15-LOX-1 E356Q,3.0 (0.1)
